The term Kd denotes the free concentration of one partner at which half of the binding sites on the other are occupied at equilibrium, for simple one-to-one binding.

Molecules are shown by their SMILES.

Here are results for eleven molecules from US10323036B2 (Nimbus Lakshmi, Inc., priority 2016, dated 2019).

For the assay, the target named is human TYK2 (JH2domain-pseudokinase) (Homo sapiens (Human), UniProt P29597). As to the kind of experiment: TYK2 JH2 Domain Binding Assay (KINOMEscan). The conditions noted are these: Table 4, JH2 binding assay; read-out: JH2 Kd.
Chain of human TYK2 (JH2domain-pseudokinase) (P29597 556-888): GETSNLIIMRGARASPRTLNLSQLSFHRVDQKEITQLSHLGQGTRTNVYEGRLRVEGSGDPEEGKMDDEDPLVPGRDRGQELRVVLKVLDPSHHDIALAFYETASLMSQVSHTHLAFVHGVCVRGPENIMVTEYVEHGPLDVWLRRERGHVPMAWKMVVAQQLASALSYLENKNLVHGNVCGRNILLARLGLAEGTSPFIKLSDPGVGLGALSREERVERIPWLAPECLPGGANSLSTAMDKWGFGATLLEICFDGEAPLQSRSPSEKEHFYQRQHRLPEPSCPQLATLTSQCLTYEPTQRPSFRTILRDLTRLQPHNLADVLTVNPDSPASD
For the molecule `COc1c(Nc2cc(Nc3ccc(C)cn3)nc3[nH]n(C)c(=O)c23)cccc1-c1nnn(C)n1` [Compound I-3, 4-((2-methoxy-3-(2-methyl-2H-tetrazol-5-yl)phenyl)amino)-2-methyl-6-((5-methylpyridin-2-yl)amino)-1,2-dihydro-3H-pyrazolo[3,4-b]pyridin-3-one], the Kd was in the range of 0.1 to 0.5 nM.

Regarding `COc1c(Nc2cc(Nc3ccccn3)nc3[nH]n(C)c(=O)c23)cccc1-c1nnn(C)n1` [Compound I-4, 4-((2-methoxy-3-(2-methyl-2H-tetrazol-5-yl)phenyl)amino)-2-methyl-6-(pyridin-2-ylamino)-1,2-dihydro-3H-pyrazolo[3,4-b]pyridin-3-one], the equilibrium dissociation constant (Kd) is 0.1 to 0.5 nM.

In the case of `COc1c(Nc2cc(Nc3cc(C)ccn3)nc3[nH]n(C)c(=O)c23)cccc1-c1nnn(C)n1` [Compound I-5, 4-((2-methoxy-3-(2-methyl-2H-tetrazol-5-yl)phenyl)amino)-2-methyl-6-((4-methylpyridin-2-yl)amino)-1,2-dihydro-3H-pyrazolo[3,4-b]pyridin-3-one], the Kd was > 10 nM.

`COc1c(Nc2cc(Nc3cc(CO)ccn3)nc3[nH]n(C)c(=O)c23)cccc1-c1nnn(C)n1` [Compound I-6, 6-((4-(hydroxymethyl)pyridin-2-yl)amino)-4-((2-methoxy-3-(2-methyl-2H-tetrazol-5-yl)phenyl)amino)-2-methyl-1,2-dihydro-3H-pyrazolo[3,4-b]pyridin-3-one]: the Kd is > 10 nM.

Take `COc1c(Nc2cc(Nc3ccc(N4CCOCC4)cn3)nc3[nH]n(C)c(=O)c23)cccc1-c1nnn(C)n1` [Compound I-7, 4-((2-methoxy-3-(2-methyl-2H-tetrazol-5-yl)phenyl)amino)-2-methyl-6-((5-morpholinopyridin-2-yl)amino)-1,2-dihydro-3H-pyrazolo[3,4-b]pyridin-3-one]: the Kd was 1 to 10 nM.

`COc1c(Nc2cc(Nc3cc(C)c(F)cn3)nc3[nH]n(C)c(=O)c23)cccc1-c1nnn(C)n1` [Compound I-8, 6-((5-fluoro-4-methylpyridin-2-yl)amino)-4-((2-methoxy-3-(2-methyl-2H-tetrazol-5-yl)phenyl)amino)-2-methyl-1,2-dihydro-3H-pyrazolo[3,4-b]pyridin-3-one]: the Kd is < 0.1 nM.

As to `COc1c(Nc2cc(Nc3cc(C)nc(C)n3)nc3[nH]n(C)c(=O)c23)cccc1-c1nnn(C)n1` [Compound I-9, 6-((2,6-dimethylpyrimidin-4-yl)amino)-4-((2-methoxy-3-(2-methyl-2H-tetrazol-5-yl)phenyl)amino)-2-methyl-1,2-dihydro-3H-pyrazolo[3,4-b]pyridin-3-one], the Kd was < 0.1 nM.

Consider `COc1c(Nc2cc(Nc3ccc(C)nn3)nc3[nH]n(C)c(=O)c23)cccc1-c1nnn(C)n1` [Compound I-10, 4-((2-methoxy-3-(2-methyl-2H-tetrazol-5-yl)phenyl)amino)-2-methyl-6-((6-methylpyridazin-3-yl)amino)-1,2-dihydro-3H-pyrazolo[3,4-b]pyridin-3-one], for which the Kd was < 0.1 nM.

As to `COc1c(Nc2cc(Nc3ccc(N4CCCCC4)cn3)nc3[nH]n(C)c(=O)c23)cccc1-c1nnn(C)n1` [Compound I-11, 4-((2-methoxy-3-(2-methyl-2H-tetrazol-5-yl)phenyl)amino)-2-methyl-6-((5-(piperidin-1-yl)pyridin-2-yl)amino)-1,2-dihydro-3H-pyrazolo[3,4-b]pyridin-3-one], the Kd was > 10 nM.

In the case of `COc1c(Nc2cc(Nc3ccc(C#N)cn3)nc3[nH]n(C)c(=O)c23)cccc1-c1nnn(C)n1` [Compound I-12, 6-((4-((2-methoxy-3-(2-methyl-2H-tetrazol-5-yl)phenyl)amino)-2-methyl-3-oxo-2,3-dihydro-1H-pyrazolo[3,4-b]pyridin-6-yl)amino)nicotinonitrile], the Kd is < 0.1 nM.

For `COc1c(Nc2cc(Nc3ccn(C)n3)nc3[nH]n(C)c(=O)c23)cccc1-c1nnn(C)n1` [Compound I-13, 4-((2-methoxy-3-(2-methyl-2H-tetrazol-5-yl)phenyl)amino)-2-methyl-6-((1-methyl-1H-pyrazol-3-yl)amino)-1,2-dihydro-3H-pyrazolo[3,4-b]pyridin-3-one], the equilibrium dissociation constant (Kd) is < 0.1 nM.
